{
  "source": "patent US20230103554A1",
  "about": "“TNFa SIGNALING [sequence] TUMOR-PROMOTING INFLAMMATION THAT CAN BE TARGETED TO THERAPY” (Baylor College of Medicine, priority 2020, published 2023)",
  "key": {"CHLA-255": {"test_system": "CHLA-255", "test": "CellTrace Violet proliferation of NB co-cultured with monocytes", "type": "cell-based, human", "conditions": "CHLA-255 CTV-pulsed + monocytes, 10 μg/mL etanercept, four days", "protocol": "(15A) TNFα level within co-culture supernatant was determined by TNFα ELISA. Mean TNFα concentration±SD of representative data from two monocyte donors run in triplicate. (FIG. 15B) Supernatant IL-6 levels were determined by ELISA. Mean IL-6 concentration±SD of representative data from two monocyte donors run in triplicate (FIG. 15C) Intracellular IκBα expression level within CD14+GD2− monocyte population was determined by flow cytometry and IκBα MFI was normalized to monocyte only control. Mean normalized IκBα MFI±SD and representative from experiments with two monocyte donors run in triplicate. (FIG. 15D) Intracellular IκBα expression level within CD14-GD2+NB population was determined by flow cytometry and IκBα MFI was normalized to NB only control. […] NB luminescence was used to evaluate relative viability of cell line. Results are normalized mean luminescence±SD, n=6 replicates per condition. […] Cells undergoing multiple (2+) divisions were quantified as a percentage of total cells and normalized to NB (0) and Ctrl (1). […]\nMonocytes were directly cultured with wild-type or TNF, TNFR1, TNFR2 KO NB cell lines in ULA plates for 24 hours. Activation of NF-kB in monocytes and NB was measured by flow cytometry and cytokine production measured by ELISA from co-culture supernatant. […] Luminescence was measured using a TECAN Spark plate reader (TECAN). […]"}, "[1]": {"test_system": "NF-κB signaling in NB cells", "test": "Intracellular IκBα in NB population of co-culture (PhosFlow flow cytometry)", "type": "cell-based, human", "protocol": "Monocytes were directly cultured with wild-type or TNF, TNFR1, TNFR2 KO NB cell lines in ULA plates for 24 hours. Activation of NF-kB in monocytes and NB was measured by flow cytometry and cytokine production measured by ELISA from co-culture supernatant. To evaluate the contact-dependence of monocyte activation by NB, monocytes were cultured in ULA plates with seven-day NB conditioned medium mixed 1:1 with complete monocyte medium for 24 hours and analyzed for IL-6 production. To assess the growth advantage of NB cultured with monocytes, NB-luc cell lines and monocytes were seeded in tissue culture-treated white 96-well plates (1:1 ratio) and cultured for four days. Luminescence was measured using a TECAN Spark plate reader (TECAN). To evaluate changes in proliferation, NB was pulsed for 10 minutes in CellTrace Violet (2 μM, Invitrogen) and seeded at 100,000 cells per well in a 12-well tissue culture-treated plate. Monocytes were added directly to the NB monolayer at a density of 100,000 per well and incubated for four days. CellTrace Violet expression was analyzed by flow cytometry.\nTo evaluate the expression of TNFα in NB and monocytes, cells were first stimulated with LPS (50 ng/mL) in the presence of GolgiStop (BD Biosciences) and fixed using CytoFix/Cytoperm buffer (BD Biosciences). Cells were then stained with TNFα-PE (BD Biosciences). To evaluate the expression of TNFR1 and TNFR2 on NB and monocytes, cells were stained with TNFR1-BV421 and TNFR2-APC (BD Biosciences) in FACS staining buffer containing 0.05% sodium azide to prevent receptor/antibody processing. To estimate changes in NF-kB expression, treated co-cultures were first stained with ZombieViolet (1 μL/test, Biolegend) to counterstain dead cells and APC-H7 CD45 and/or FITC-CD14 to label monocytes for 20 minutes at room temperature. […] All flow samples were run using an LSRII 5-laser flow cytometer (Texas Children's Hospital Cancer Center Flow Cytometry Core, Houston, Tex.) and analyzed using FlowJo Software (Treestar)."}},
  "data": [
    {"substance": "etanercept", "values": [
      {"measurement": "reduction of monocyte-induced increase in NB cells undergoing multiple divisions", "setting": "CHLA-255", "result": 56, "unit": "%"},
      {"measurement": "reversal of IκBα degradation in NB", "setting": "[1]; CHLA-255 + monocytes, 10 μg/mL etanercept, 24 hours (FIG. 15D)", "result": "partial"},
      {"measurement": "IκBα levels in NB cells", "setting": "[1]; SK-N-AS + monocytes, etanercept, 24 hours", "result": "restored IκBα levels to the levels found in NB cells cultured alone"}
    ]}
  ]
}
